{"source": "patent US20060257502A1", "about": "“A COMBINATION OF MITOCHONDRIAL NUTRIENTS FOR RELIEVING STRESS, PREVENTING AND IMPROVING STRESS-RELATED DISORDERS” (priority 2005, published 2006)", "origin": "cited, not measured here", "system": "rats"}
{"smiles": "Oc1ccc(/C=C/c2cc(O)cc(O)c2)cc1", "note": "[Resveratrol, trans-3,5,4′-trihydroxystilbene]", "values": [{"measurement": "No observed adverse effect level", "result": "300 mg per kilogram body weight per day"}]}
